Structures are written as SMILES. Where only a bound is given, the exact number is not on record here.

A word on the EC50: it is the concentration at which the effect is half-maximal. Broadly, the IC50 is the concentration at which inhibition is half-maximal. Read a low IC50 as higher potency.

One assay has as its system Replicon cells. In words: HCV EC50 determination in replicon cells (luciferase). Format: cell-based. Particulars: Hepatitis C virus, 72 h. The method, then:
Replicon cells were seeded in 96-well plates at a density of 8×10^3 cells per well in 100 μL of culture medium, excluding Geneticin. Compound was serially diluted in 100% DMSO and then added to the cells at a 1:200 dilution, achieving a final concentration of 0.5% DMSO and a total volume of 200 μL. Plates were incubated at 37° C. for 3 days, after which culture medium was removed and cells were lysed in lysis buffer provided by Promega's luciferase assay system. Following the manufacturer's instruction, 100 μL of luciferase substrate was added to the lysed cells and luciferase activity was measured in a TopCount luminometer.
The specific activity observed may vary according to and depending on the particular replicon tested, the active compound selected or whether there are present pharmaceutical carriers, as well as the type of formulation and mode of administration employed, and such expected variations or differences in the results are contemplated in accordance with practice of the present invention.
(In antiviral work, replicon cells carry a viral genome segment that copies itself.)
Turning to `CC(C)OC(=O)[C@H](C)NP(=O)(OC[C@H]1O[C@@](C#N)(c2ccc3c(N)ncnn23)[C@](C)(O)[C@@H]1O)Oc1ccccc1` (stereo partly drawn) [Compound 6], the EC50 was 480 to 1800 nM.

Compound `CC(C)OC(=O)[C@H](C)N[P@](=O)(OC[C@H]1O[C@@](C#N)(c2ccc3c(N)ncnn23)[C@](C)(O)[C@@H]1OC(=O)C(C)C)Oc1ccccc1` [Compound 8A] yielded an EC50 of 96 to 360 nM. Still for that read-out and setting: with `CC(C)OC(=O)[C@H](C)N[P@@](=O)(OC[C@H]1O[C@@](C#N)(c2ccc3c(N)ncnn23)[C@](C)(O)[C@@H]1OC(=O)C(C)C)Oc1ccccc1` [Compound 8B] the figure was 460 to 1900 nM; with `CC(C)OC(=O)[C@H](C)NP(=O)(OC[C@H]1O[C@@](C#N)(c2ccc3c(N)ncnn23)[C@](C)(O)[C@@H]1OC(=O)C(C)C)Oc1ccccc1` (stereo partly drawn) [Compound 8], 140 to 520 nM.

Staying with this assay, now noted: Hepatitis C virus, 72 h; replicon cells, 3 days, luciferase activity; read-out: EC50.
For `C[C@@]1(O)[C@H](O)[C@@H](CO)O[C@@]1(C#N)c1ccc2c(N)ncnn12` [Compound 5], the concentration giving a half-maximal response (EC50) was above 89000 nM. Take `CC(C)OC(=O)[C@H](C)NP(=O)(N[C@@H](C)C(=O)OC(C)C)OC[C@H]1O[C@@](C#N)(c2ccc3c(N)ncnn23)[C@](C)(O)[C@@H]1O` [Compound 61]: the EC50 was found to be 51000 nM. For the compound `CC(C)OC(=O)[C@H](C)NP(=O)(N[C@@H](C)C(=O)OC(C)C)OC[C@H]1O[C@@](C#N)(c2ccc3c(N)ncnn23)[C@](C)(O)[C@@H]1OC(=O)C(C)C` [Compound 64], the EC50 stood at 5380 nM. The same measure, in the same setting: with `CC(=O)O[C@@H]1[C@@H](COP(=O)(N[C@@H](C)C(=O)OC(C)C)N[C@@H](C)C(=O)OC(C)C)O[C@@](C#N)(c2ccc3c(N)ncnn23)[C@]1(C)O` [Compound 65] the figure was 8400 nM.

In another assay the target is T1, HCV Δ21 NS5b polymerase (Hepatitis C virus genotype 1b, UniProt Q9WMX2).
T1 construct: 75 nM HCV Δ21 NS5b polymerase
In words: HCV IC50 determination, NS5b polymerase assay. The format is biochemical.
Details: not given
Here is the method: Assay Protocol: NS5b polymerase assay (40 μL) was assembled by adding 28 μL polymerase mixture (final concentration: 50 mM Tris-HCl at pH 7.5, 10 mM KCL, 5 mM MgCl2, 1 mM DTT, 10 mM EDTA, 4 ng/μL of RNA template, and 75 nM HCV Δ21 NS5b polymerase) to assay plates followed by 4 μL of compound dilution. The polymerase and compound were pre-incubated at 35° C. for 10 minute before the addition of 8 μL of nucleotide substrate mixture (33P-α-labeled competing nucleotide at KM and 0.5 mM of the remaining three nucleotides). The assay plates were covered and incubated at 35° C. for 90 min. Reactions were then filtered through 96-well DEAE-81 filter plates via vacuum. The filter plates were then washed under vacuum with multiple volumes of 0.125 M NaHPO4, water, and ethanol to remove unincorporated label. Plates were then counted on TopCount to assess the level of product synthesis over background controls. The IC50 value is determined using Prism fitting program.
In turn, `C[C@@]1(O)[C@H](O)[C@@H](COP(=O)(O)OP(=O)(O)OP(=O)(O)O)O[C@@]1(C#N)c1ccc2c(N)ncnn12` [Compound 7] gave an IC50 below 1000 nM.

Values taken from US8415308B2, “1′-substituted-carba-nucleoside prodrugs for antiviral treatment” (Gilead Sciences, Inc., priority 2010, dated 2013).
